33 compounds from patent US9278915B2, “Agonists of GPR40” (CONNEXIOS LIFE SCIENCES PVT LTD, priority 2010, dated 2016) can be followed below.

For the experiment, the target named is T1, hGPR40 (Homo sapiens, UniProt O14842).
T1 construct: expressed in transfected cells
The experiment in a line: Calcium flux assay to detect GPR40 activation. The class given is cell-based. The conditions noted are these: CHO-K cells stably expressing hGPR40; Fluo-4 NW; read for 4 min at 5 s intervals. As for the experimental part: Biological Activity Calium Flux Assay to Detect GPR40 Activation: CHO-K cells stably expressing hGPR40 were selected in a media containing Neomycin/G418. The cells were plated at a concentration of 20,000 cells per well in black 96-well clear bottom tissue culture treated plates. The cells were cultured for 24 h at 37° C. in a humidified 5% CO2 air environment to allow for protein expression. The next day, after removal of media from wells, Fluo-4 NW (Invitrogen) is added at 100 ul/well and the cells were incubated for 30 min at 37° C. and for a further 30 min at RT. All test compounds were diluted to appropriate concentrations in HEPES buffer. Compounds were added to the cells and the wells were read in the BioTEK synergy reader and readings were taken for 4 min with an interval of 5 s.
In general terms: Calcium assays in cells follow changes in intracellular calcium, usually with a dye or a luminescent sensor.

T1 sequence (O14842 whole entry): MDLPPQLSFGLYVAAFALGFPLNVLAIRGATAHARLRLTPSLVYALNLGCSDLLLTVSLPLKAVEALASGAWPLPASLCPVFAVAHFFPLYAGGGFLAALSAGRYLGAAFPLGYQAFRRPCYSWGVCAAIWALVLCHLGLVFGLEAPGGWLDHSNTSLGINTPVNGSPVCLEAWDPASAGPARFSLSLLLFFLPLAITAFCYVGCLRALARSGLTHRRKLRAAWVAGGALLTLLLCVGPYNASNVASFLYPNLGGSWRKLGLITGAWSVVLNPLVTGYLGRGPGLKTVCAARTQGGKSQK

A word on the EC50: it is the concentration needed to bring the measured effect to its halfway point. Consider `CO/N=C(/COc1ccc(COc2ccc(C(C#N)CC(=O)O)cc2)cc1)C1CC1` (stereo not drawn) [Compound 104, 3-Cyano-3-{4-[(4-{[(2E)-2-cyclopropyl-2-(methoxyimino)ethyl]oxy}benzyl)oxy]phenyl}propanoic acid], for which the 50% effective concentration (EC50) is above 100 nM. To `CO/N=C(\COc1ccc(COc2ccc(C(C#N)CC(=O)O)cc2)cc1)C1CC1` (stereo not drawn) [Compound 105, 3-Cyano-3-{4-[(4-{[(2Z)-2-cyclopropyl-2-(methoxyimino)ethyl]oxy}benzyl)oxy]phenyl}propanoic acid] belongs above 100 nM. For the compound `CO/N=C(\COc1ccc(COc2ccc(C(C#N)CC(=O)O)c(C)c2)cc1)c1ccccc1` (stereo not drawn) [Compound 62, 3-Cyano-3-{4-[(4-{[(2Z)-2-(methoxyimino)-2-phenylethyl]oxy}benzyl)oxy]-2-methylphenyl}propanoic acid], the concentration for a half-maximal effect (EC50) is 10 to 100 nM.

Regarding `CO/N=C(\COc1ccc(COc2ccc(/C(CC(=O)O)=N\OCc3ccccc3)cc2)cc1)c1ccccc1` [Compound 122, (3E,3Z)-3-[(Benzyloxy)imino]-3-{4-[(4-{[(2Z)-2-(methoxyimino)-2-phenylethyl]oxy}benzyl)oxy]phenyl}propanoic acid], the EC50 is above 100 nM. On to `CO/N=C(\COc1cccc(COc2ccc(CC(C#N)C(=O)O)cc2)c1)c1ccccc1` (stereo not drawn) [Compound 8, 2-Cyano-3-{4-[(3-{[(2E,2Z)-2-(methoxyimino)-2-phenylethyl]oxy}benzyl)oxy]phenyl}propanoic acid], for which the EC50 was above 100 nM. For `CO/N=C(\COc1ccc(COc2ccc([C@H]3C[C@@H]3C(=O)O)cc2)cc1)c1ccc(C#N)cc1` [Compound 64, (1S,2S)-2-{4-[(4-{[(2E,2Z)-2-(4-Cyanophenyl)-2-(methoxyimino)ethyl]oxy}benzyl)oxy]phenyl}cyclopropanecarboxylic acid], the EC50 fell in the range of 10 to 100 nM. To `CO/N=C(\c1ccccc1)c1cccc(COc2ccc(CC(=O)O)cc2)c1` [Compound 19, [4-({3-[(E,Z)-(Methoxyimino)(phenyl)methyl]benzyl}oxy)phenyl]acetic acid] belongs above 100 nM; to `CO/N=C(\COc1ccc(COc2ccc(CCC(=O)O)cc2)cn1)c1ccccc1` [Compound 20, 3-{4-[(6-{[(2Z)-2-(Methoxyimino)-2-phenylethyl]oxy}pyridin-3-yl)methoxy]phenyl}propanoic acid], above 100 nM; to `CO/N=C(\COc1ccc(COc2ccc(C(CC(=O)O)C(N)=O)cc2)cc1)c1ccccc1` (stereo not drawn) [Compound 93, 4-Amino-3-{4-[(4-{[(2Z)-2-(methoxyimino)-2-phenylethyl]oxy}benzyl)oxy]phenyl}-4-oxobutanoic acid], above 100 nM. As for `CO/N=C(\COc1ccc(COc2ccc(C(C#N)CC(=O)O)cc2)cc1)c1ccc(OC)cc1` (stereo not drawn) [Compound 66, 3-Cyano-3-{4-[(4-{[(2Z)-2-(methoxyimino)-2-(4-methoxyphenyl)ethyl]oxy}benzyl)oxy]phenyl}propanoic acid], the EC50 is below 10 nM. To `CO/N=C(\COc1ccc(CNc2ccc(CCC(=O)O)cc2)cc1)c1ccccc1C` [Compound 6, 3-{4-[(4-{[(2Z)-2-(Methoxyimino)-2-(2-methylphenyl)ethyl]oxy}benzyl)amino]phenyl}propanoic acid] belongs 10 to 100 nM. With `N#CC(CC(=O)O)c1ccc(OCc2ccc(OC/C(=N\OC3CCCCC3)c3ccccc3)cc2)cc1` (stereo not drawn) [Compound 111, 3-Cyano-3-(4-{[4-({(2Z)-2-[(cyclohexyloxy)imino]-2-phenylethyl}oxy)benzyl]oxy}phenyl)propanoic acid], the EC50 is 10 to 100 nM. Consider `CO/N=C(\COc1ccc(COc2ccc(/C(CC(=O)O)=N\OC3CCCCC3)cc2)cc1)c1ccccc1` [Compound 124, (3E,3Z)-3-[(Cyclohexyloxy)imino]-3-{4-[(4-{[(2Z)-2-(methoxyimino)-2-phenylethyl]oxy}benzyl)oxy]phenyl}propanoic acid], for which the EC50 is above 100 nM. To `CO/N=C(\COc1ccc(COc2ccc(C3CC3C(=O)O)cc2)cc1)c1ccc(C#N)cc1` (single isomer, unassigned) [Compound 79, Sodium 2-{4-[(4-{[(2Z)-2-(4-cyanophenyl)-2-(methoxyimino)ethyl]oxy}benzyl)oxy]phenyl}cyclopropanecarboxylate] belongs above 100 nM. Regarding `CO/N=C(\COc1ccc(COc2ccc(CCC(=O)O)c(CC#N)c2)cc1)c1ccccc1` [Compound 44, 3-{2-(Cyanomethyl)-4-[(4-{[(2Z)-2-(methoxyimino)-2-phenylethyl]oxy}benzyl)oxy]phenyl}propanoic acid], the EC50 is above 100 nM. Turning to `CO/N=C(\COc1ccc(COc2ccc(C(C#N)CC(=O)O)cc2)cc1)c1ccc(F)cc1` (stereo not drawn) [Compound 54, Sodium 3-cyano-3-{4-[(4-{[(2Z)-2-(4-fluorophenyl)-2-(methoxyimino)ethyl]oxy}benzyl)oxy]phenyl}propanoate], the 50% effective concentration (EC50) was in the range of 10 to 100 nM. Take `CO/N=C(\COc1ccc(COc2ccc(C(C#N)CC(=O)O)cc2)cc1)c1ccccc1` (stereo not drawn) [Compound 16, 3-Cyano-3-{4-[(4-{[(2Z)-2-(methoxyimino)-2-phenylethyl]oxy}benzyl)oxy]phenyl}propanoic acid]: the concentration giving a half-maximal response (EC50) lay within 10 to 100 nM.

Take `CO/N=C(/c1ccccc1)c1cccc(CNc2ccc(CCC(=O)O)cc2)c1` [Compound 2, 3-[4-({3-[(E,Z)-(Methoxyimino)(phenyl)methyl]benzyl}amino)phenyl]propanoic acid]: the EC50 lay within 10 to 100 nM. To `CO/N=C(\COc1ccc(COc2ccc(CCC(=O)O)cc2OC)cc1)c1ccccc1` [Compound 94, 3-{3-Methoxy-4-[(4-{[(2Z)-2-(methoxyimino)-2-phenylethyl]oxy}benzyl)oxy]phenyl}propanoic acid] belongs above 100 nM; to `CO/N=C(\COc1ccc(COc2ccc([C@H]3C[C@H]3C(=O)O)cc2)cc1)c1ccc(C#N)cc1` [Compound 63, (1R,2S)-2-{4-[(4-{[(2Z)-2-(4-Cyanophenyl)-2-(methoxyimino)ethyl]oxy}benzyl)oxy]phenyl}cyclopropanecarboxylic acid], above 100 nM. `CO/N=C(\COc1ccc(COc2ccc(C(C#N)CC(=O)O)cc2)cc1)c1ccccc1` (stereo not drawn) [Compound 31, Potassium 3-cyano-3-{4-[(4-{[(2Z)-2-(methoxyimino)-2-phenylethyl]oxy}benzyl)oxy]phenyl}propanoate]: the EC50 is below 10 nM. As to `CO/N=C(\COc1ccc(COc2ccc(OCC(=O)O)cc2)cc1)c1ccccc1` [Compound 117, {4-[(4-{[(2Z)-2-(Methoxyimino)-2-phenylethyl]oxy}benzyl)oxy]phenoxy}acetic acid], the EC50 is above 100 nM.

As to `CO/N=C(\COc1ccc(COc2ccc(C(CC(=O)O)c3ccon3)cc2)cc1)c1ccccc1` (stereo not drawn) [Compound 17, 3-{4-[(4-{[(2Z)-2-(methoxyimino)-2-phenylethyl]oxy}benzyl)oxy]phenyl}-3-(1,2-oxazol-3-yl)propanoic acid], the concentration giving a half-maximal response (EC50) lay within 10 to 100 nM.

As for `N#CC(CC(=O)O)c1ccc(OCc2ccc(OC/C(=N\O)c3ccccc3)cc2)cc1` (stereo not drawn) [Compound 78, 3-Cyano-3-{4-[(4-{[(2E,2Z)-2-(hydroxyimino)-2-phenylethyl]oxy}benzyl)oxy]phenyl}propanoic acid], the EC50 is 10 to 100 nM. Turning to `CO/N=C(/COc1ccc(COc2ccc(COCC(=O)O)cc2)cc1)c1ccccc1` [Compound 30, ({4-[(4-{[(2E,2Z)-2-(Methoxyimino)-2-phenylethyl]oxy}benzyl)oxy]benzyl}oxy)acetic acid], the concentration giving a half-maximal response (EC50) was above 100 nM. Regarding `CO/N=C(/COc1ccc(COc2ccc(C(C#N)CC(=O)O)cc2)cc1)c1ccccc1` (stereo not drawn) [Compound 53, Sodium 3-cyano-3-{4-[(4-{[(2E)-2-(methoxyimino)-2-phenylethyl]oxy}benzyl)oxy]phenyl}propanoate], the EC50 is 10 to 100 nM. `CO/N=C(\COc1ccc(COc2ccc(C(CC(=O)O)c3ccon3)cc2)cc1)c1ccccc1` (stereo not drawn) [Compound 29, Sodium 3-{4-[(4-{[(2Z)-2-(methoxyimino)-2-phenylethyl]oxy}benzyl)oxy]phenyl}-3-(1,2-oxazol-3-yl)propanoate]: the 50% effective concentration (EC50) was below 10 nM. For the compound `CO/N=C(\COc1ccc(COc2ccc3c(c2)OCC3CC(=O)O)cc1)c1ccccc1` (stereo not drawn) [Compound 73, {6-[(4-{[(2Z)-2-(Methoxyimino)-2-phenylethyl]oxy}benzyl)oxy]-2,3-dihydro-1-benzofuran-3-yl}acetic acid], the 50% effective concentration (EC50) lay within 10 to 100 nM.

For the compound `CO/N=C(\COc1ccc(COc2ccc(C(CC(=O)O)C3CC3)cc2)cc1)c1ccccc1` (stereo not drawn) [Compound 87, 3-Cyclopropyl-3-{4-[(4-{[(2Z)-2-(methoxyimino)-2-phenylethyl]oxy}benzyl)oxy]phenyl}propanoic acid], the EC50 is above 100 nM. On to `CO/N=C(/COc1ccc(COc2ccc(C(C#N)CC(=O)O)cc2)cc1)c1cccc(C)c1` (racemic) [Compound 27, 3-Cyano-3-{4-[(4-{[(2E,2Z)-2-(methoxyimino)-2-(3-methylphenyl)ethyl]oxy}benzyl)oxy]phenyl}propanoic acid], for which the half-maximal effective concentration (EC50) was in the range of 10 to 100 nM. As for `CO/N=C(/c1ccccc1)c1cccc(CNc2ccc(C3CC3C(=O)O)cc2)c1` (racemic) [Compound 13, (1R,2R)-2-[4-({3-[(E,Z)-(Methoxyimino)(phenyl)methyl]benzyl}amino)phenyl]cyclopropanecarboxylic acid], the EC50 was 10 to 100 nM.

As to `CO/N=C(\COc1ccc(COc2cc(F)c(CCC(=O)O)cc2F)cc1)c1ccccc1` [Compound 86, 3-{2,5-Difluoro-4-[(4-{[(22)-2-(methoxyimino)-2-phenylethyl]oxy}benzyl)oxy]phenyl}propanoic acid], the EC50 is above 100 nM. In the case of `CO/N=C(/c1ccccc1)c1cccc(COc2ccc(CCC(=O)O)cc2)c1` [Compound 1, 3-[4-({3-[(E,Z)-(methoxyimino)(phenyl)methyl]benzyl}oxy)phenyl]propanoic acid], the concentration for a half-maximal effect (EC50) fell in the range of 10 to 100 nM.
